Source: paper PMC11091967, “Silicon-Rhodamine Functionalized Evocalcet Probes Potently and Selectively Label Calcium Sensing Receptors In Vitro, In Vivo, and Ex Vivo” (ACS Pharmacology & Translational Science, 2024)
Read-outs that look alike come from different tables or passages of the source.

Tests used:
human CaSR [1] = target: T1, human CaSR (Homo sapiens, UniProt P41180); test: In vitro labeling of CaSR expressing (HCAR) and control (CCL39) cells, fluorescence microscopy; type: cell-based
T1 construct: host or cells: CCL39 hamster lung fibroblasts stably transfected (HCAR), Geneticin selection
T1 sequence (P41180 20-1078): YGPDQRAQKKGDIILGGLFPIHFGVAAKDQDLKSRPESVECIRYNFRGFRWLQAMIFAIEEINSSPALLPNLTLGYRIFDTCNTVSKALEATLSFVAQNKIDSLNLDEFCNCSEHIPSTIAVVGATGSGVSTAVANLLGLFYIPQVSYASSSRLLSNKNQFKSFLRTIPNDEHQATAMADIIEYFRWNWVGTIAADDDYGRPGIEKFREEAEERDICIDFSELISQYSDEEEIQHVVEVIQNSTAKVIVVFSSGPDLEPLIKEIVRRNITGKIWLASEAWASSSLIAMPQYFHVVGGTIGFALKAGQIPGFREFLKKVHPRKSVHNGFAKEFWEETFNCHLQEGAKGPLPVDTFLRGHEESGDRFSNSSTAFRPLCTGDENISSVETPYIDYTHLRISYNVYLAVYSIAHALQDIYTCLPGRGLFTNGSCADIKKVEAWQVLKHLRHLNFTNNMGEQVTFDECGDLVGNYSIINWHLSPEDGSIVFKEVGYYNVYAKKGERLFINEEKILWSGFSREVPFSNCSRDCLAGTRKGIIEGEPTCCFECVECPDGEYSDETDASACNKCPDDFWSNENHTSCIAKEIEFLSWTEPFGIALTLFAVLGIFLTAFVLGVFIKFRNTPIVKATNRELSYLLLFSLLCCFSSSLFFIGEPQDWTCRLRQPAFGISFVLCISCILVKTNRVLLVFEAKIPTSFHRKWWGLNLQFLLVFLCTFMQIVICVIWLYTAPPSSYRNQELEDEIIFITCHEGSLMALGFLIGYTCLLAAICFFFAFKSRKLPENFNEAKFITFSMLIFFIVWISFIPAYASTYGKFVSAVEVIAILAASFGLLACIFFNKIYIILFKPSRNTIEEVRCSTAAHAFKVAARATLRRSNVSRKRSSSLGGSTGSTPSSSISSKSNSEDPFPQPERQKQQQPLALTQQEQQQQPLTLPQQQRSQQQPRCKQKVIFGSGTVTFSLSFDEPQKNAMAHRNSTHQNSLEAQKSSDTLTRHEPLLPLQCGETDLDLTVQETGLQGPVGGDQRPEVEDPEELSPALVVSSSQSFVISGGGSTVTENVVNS
Description: HCAR (CaSR+) and CCL39 (CaSR−) cells were kindly obtained from Novartis AG (Basel, Switzerland) and validated in house. The cells were seeded into μ-slide 18 well plates (ibidi, 81816) at a density of 5000 cells per well and were incubated for 24 h under standard culturing conditions. As our preliminary data indicated considerable nonspecific labeling of dying cells and cellular debris, a viability staining was introduced to ensure probe specificity.[29] Thus, after washing twice with HBSS, cells were incubated in 10 μM Calcein AM solution containing 0.02% Pluronic F-127 and 0.1% DMSO for 45 min at 37 °C. The solution was then removed and washed twice in HBSS before the addition of the HBSS solution containing the SiR probes. All probe solutions were protected from light exposure and contained 0.5% DMSO and various concentrations of BSA depending on the experiment. Incubation with the fluorescent probes was 20 min long, after which a single washing step was introduced with HBSS before imaging. Images of the cells (Calcein: FITC channel, SiR: Cy5 channel) were acquired with a Nikon Eclipse TI2 inverted wide-field fluorescence microscope using a 60× magnification oil immersion objective (Nikon CFI Plan Fluor, 60×, NA = 0.85). For each well, a minimum of 3 images were acquired. For each image, cells were segmented to generate labels on the FITC channel postacquisition using the deep neural network-based Cellpose package in Python 3.9 (model_type: cyto2, diameter: 200, flow_threshold: 0.4).[30] To normalize pixel intensity values across images, for each image, a background value was calculated by taking the average pixel intensity value of the pixels in which no cellular label was present and were negative for the EvoSiR label (triangle thresholding used). For each cell, the skewness of the value distribution and the mean of the Cy5 pixel intensities were calculated. The procedure for evaluating the long-term labeling (72 h) of EvoSiR probes on CCL39 and HCAR cells was similar, with the following modifications: images were retrieved using 10× magnification air objectives (Nikon CFI Plan Fluor 10×, NA = 0.3), in the neural network model, the diameter parameter was set to 30, and only the mean Cy5 pixel intensities per cell object were retrieved.

[2] = test system: hair cells of the neuromasts within the lateral line organ; test: In vivo labeling of neuromasts in zebrafish larvae; design: species or system zebrafish (Danio rerio); details: 4–6 dpf larvae, neuromasts identified with DiAsp
Description: For the neuromast labeling experiments, wild-type 4–6 days post fertilization (dpf) zebrafish larvae were incubated in 200 μL of E3 medium containing different doses of the SiR probes (500–5000 nM), 2.5 μM 4-(4-diethylaminostyryl)-1-methyl-pyridinium-iodid (DiAsp, Sigma, D3418), which specifically labels hair cells in the lateral line in 0.5% DMSO for 30 min (35). Next, washing and anesthesia were achieved by placing the larvae in a 35 mm imaging dish (MolBiTec, Imaging dish 1.5) which contained 500 μL of E3 medium with 168 mg/L MS-222 (Tricaine Mehanesulfonate, Sigma) for 10 min. After removing the solution, fish were side-embedded in the imaging dish using 500 μL of 0.75% low-melting temperature agarose (Sigma, A4018). Wide-field imaging was done using the Zeiss Axio Observer fluorescence microscope (LD A-Plan 10× objective, NA = 0.25), and confocal imaging was done using a Zeiss LSM 800 confocal fluorescence microscope (LD LCI Plan-Apochromat 25× objective, NA = 0.8).

[3] = target: T2, bovine serum albumin (BSA) (Bos taurus, UniProt P02769); test: Spectrofluorometric analysis of fluorogenicity upon BSA binding; type: physicochemical
T2 construct: purchased Sigma A7906
T2 sequence (P02769 25-607): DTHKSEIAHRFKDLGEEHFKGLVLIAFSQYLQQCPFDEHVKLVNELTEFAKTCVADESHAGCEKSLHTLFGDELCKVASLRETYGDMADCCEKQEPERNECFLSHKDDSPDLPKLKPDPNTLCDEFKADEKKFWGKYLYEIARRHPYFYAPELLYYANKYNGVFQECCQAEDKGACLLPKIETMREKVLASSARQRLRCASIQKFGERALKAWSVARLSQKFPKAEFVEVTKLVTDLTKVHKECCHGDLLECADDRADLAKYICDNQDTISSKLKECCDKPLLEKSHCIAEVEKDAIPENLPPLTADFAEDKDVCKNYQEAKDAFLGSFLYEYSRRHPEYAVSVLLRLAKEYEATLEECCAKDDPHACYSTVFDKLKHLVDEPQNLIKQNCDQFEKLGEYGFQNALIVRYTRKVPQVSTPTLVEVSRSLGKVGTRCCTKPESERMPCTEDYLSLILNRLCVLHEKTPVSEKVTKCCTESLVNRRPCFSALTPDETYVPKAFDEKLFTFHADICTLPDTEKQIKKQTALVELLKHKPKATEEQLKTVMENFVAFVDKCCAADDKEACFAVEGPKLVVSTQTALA
Description: (§1) Spectrofluorometric measurements were carried out by using the Agilent Cary Eclipse instrument. The voltage of the photomultiplier tube (PMT) was set to 600 for EvoSiR4 and EvoSiR6, and for 500 for SiR (4). Fluorescence of the probes was measured at concentrations ranging from 30 to 3000 nM in PBS containing various amounts of bovine serum albumin (BSA) (Sigma, A7906). Quenching experiments for the calculation of BSA binding were performed by adding a 1:1 molar ratio of tannic acid dissolved in ddH2O (Sigma, 403040) to the solution prior to measuring fluorescence.

[4] = Spectrofluorometric fluorescence in PBS and effect of pH; type: physicochemical; details: PBS
Description: as §1

[5] = Photophysical characterization; type: physicochemical; design: λex / λem: unit not given here
human CaSR [6] = target: T1, human CaSR; test: FLIPR-based functional CaSR calcium assay in HCAR cells; type: cell-based; details: HCAR cells
Description: Hamster lung fibroblasts (CCL39, CaSR−) expressing the recombinant human CaSR (HCAR, CaSR+) and nontransected controls were kindly provided by Novartis AG and were kept in standard culturing conditions (37 °C, 5% CO2) in 1/2 DMEM (Roth, 9005.1)—1/2 F-12 (Sigma, N4888–500 mL) media containing 10% FBS. Media for the HCAR cells contained 500 μg/mL Geneticin as a selection antibiotic (Thermo Fisher, 10131035). Upon reaching 90–95% confluence, cells were detached and seeded into 96-well plates (PerkinElmer, 6005182) at a concentration of 35,000 cells per well and were incubated for 24 h before the experiment. For the functional CaSR calcium assay, cells were first washed twice with HBSS medium (Sigma, H6648), and were incubated in HBSS containing 5 μM Fluo-8 AM and 0.1 mM CaCl2 for 30 min at 37 °C. Calcium transients were measured upon addition of 0.5 mM CaCl2 with the FLIPR Tetra high-throughput cellular screening systems using the 470–495 nm LED excitation and 515–575 nm bandpass emission filters. Probe solutions contained 0.5% DMSO and were added to the cells 10 min prior to the measurement. dF/F0 values were calculated as a change in the peak fluorescence value of the transient for the first 200 data points normalized to the background fluorescence of the well. […] Both cells were washed with HBSS medium twice and then incubated for 10 min at 37 °C in HBSS medium containing 0.1% BSA in the presence or absence of 10 μM evocalcet. Upon the removal of media, cells were incubated in various concentrations of EvoSiR4 and EvoSiR6 in HBSS containing 0.1% BSA for 30 min at 37 °C and were subsequently washed 3 times with 0.1% BSA and resuspended in DMSO before the fluorometric measurement. The fluorescence was measured using a Tecan GENios pro microplate reader with the following parameters: λex = 612 nm, λem = 670 nm, gain = 50 AU. Data for the EvoSiR probes and the evocalcet competition is reported as CaSR-specific fluorescence, which was calculated by dividing the absolute fluorescence of the HCAR cells with the absolute fluorescence of the CCL39 cells for each concentration.

[7] = Fluorescence quenching of SiR probes by tannic acid, spectrofluorometer; type: physicochemical
Description: as §1

In the case of `Cc1cc(C(=O)NCCCCN)ccc1C1=C2C=CC(=[N+](C)C)C=C2[Si](C)(C)c2cc(N(C)C)ccc21` [SiR (4)], the “fold increase in skewness of pixel intensity distribution, CaSR+ (HCAR) vs CaSR- (CCL39) cells” value (human CaSR [1]; 500 nM probe, 0.1% BSA) is reported as “no significant difference”, the “normalized fluorescence of the neuromasts to the background fluorescence, mean and standard deviation” value [2] is reported as 1.28 ± 0.41 and the “increase in absolute fluorescence upon addition of 1% BSA” value ([3]; 1% BSA compared to PBS) is reported as “no effect”. The “change in absolute fluorescence in response to BSA” value ([3]; BSA 0.01–0.1%) was “no significant change”, the “absolute fluorescence in PBS relative to EvoSiR4 and EvoSiR6” value [4] was 10 times and the “fluorescence lifetime τ” value [5] was 1.92 ± 0.733 ns. The “quantum yield Φ” value ([5]; 94% ethanol, 750 nM, relative to Rhodamine B) was 0.347, the λem ([5]; Table 1) was 670 and the λex ([5]; Table 1) was 650. For the same compound, the “extinction coefficient ε” value ([5]; absorbance at 150–1350 nM, 1 cm cuvette) was 7051 M^–1 cm^–1.
For `C[C@@H](N[C@H]1CCN(c2ccc(CC(=O)NCCCCNC(=O)OC(C)(C)C)cc2)C1)c1cccc2ccccc12` [compound 1], the EC50 (human CaSR [6]; response to addition of 0.5 mM CaCl2, no BSA, read-out: EC50, positive allosteric modulation of CaSR activity) was 0.101 ± 0.006 µM.
`[Ca+2].[Cl-].[Cl-]` [extracellular calcium, CaCl2, reference compound] showed an EC50 (human CaSR [6]; dF/F0, read-out: EC50 of intracellular calcium release in response to extracellular calcium) of 252 ± 10 µM.
For tannic acid [reference compound], the “increase in signal-to-noise ratio of EvoSiR4 labeling” value (human CaSR [1]; 100 nM tannic acid, CaSR+ cells labeled with 500 nM EvoSiR4) was 40% and the “IC50 of quenching the fluorescence of EvoSiR probes and SiR (4)” value [7] was “low nanomolar ranges”.
